Data: patent publication US20230337719A1, “ORAL PRODUCT” (Nicoventures Trading Limited, priority 2020, published 2023)

Legend:
[1] = Modern Oral Intervention Trial: in-mouth glycoside degradation of spiked oral product, HPLC quantitation; format: in vivo, human
Protocol: Test Product - An oral product was prepared based on the commercial product sold by British American Tobacco as LYFT. The product included microcrystalline cellulose as a filler. […] The samples were then left at room temperature for one day to evaporate the ethanol.
Modern Oral Intervention Trial - Three healthy volunteers (female, 30-35 years of age) were asked to place the raspberry ketone spiked oral product under their upper lip, slightly to the side of the front teeth. After 30 sec, the product was moisturised by using the tip of the tongue. After 5 min, the product was disgorged into a centrifuge tube and any salivary enzymatic processes stopped by adding methanol (5 mL, p.A.) into the centrifuge tube. The procedure was repeated with intervention times of 0 (control sample), 10 and 20 min.
Sample Preparation - The centrifuge tubes containing the oral product and methanol (5 mL, p.A.) were vortexed for 10 sec and then placed on a plate shaker for 10 min to extract the remaining raspberry ketone glycoside. Afterwards, the tubes were centrifuged (13,200 rpm, 10 min) and the supernatant decanted into a safe lock tube (2 mL). The safe lock tube was centrifuged (13,200 rpm, 10 min) and an aliquot taken for analysis.
Quantitation of in-mouth glycoside degradation - Analysis was performed on a HPLC system (Knauer, Germany) equipped with a pump (AZURA P2.1S), auto-sampler (AZURA AS 6.1L) and diode-array UV/VIS detector (AZURA DAD 6.1L). Samples were loaded onto a reversed phase C18 column (Knauer, Eurospher II 100 C18, 3 mm × 100 mm) and separated with a 10 min gradient starting at 90% solvent mixture A (0.1% formic acid in water) in solvent mixture B (0.1% formic acid in methanol) at a flow rate of 0.5 mL/min changing to 30% A in 5 min and back to 90% A in 0.05 min holding for 4.5 min. The detection UV wavelength was set at 280 nm. Quantitation was performed by using an external calibration curve.
3 healthy volunteers were asked to place raspberry ketone spiked oral products under their upper lip according to a defined procedure and leave the pouch in their mouth for 5, 10 and 20 min. The remaining glycoside of the incubated samples as well as a control sample which was not incubated was extracted as described above and quantified by means of high pressure liquid chromatography and an external calibration curve.

[2] = glucosylation of furaneol by glycosyl transferase; format: biochemical, Vitis vinifera
Excerpt: At some instances, the present application refers to a glycosyl transferase being “capable of catalyzing” a certain reaction. For example, the present application may state that a glycosyl transferase is capable of catalyzing transfer of a sugar group from a sugar donor to a certain acceptor. This is meant to designate that under appropriate reaction conditions the rate at which the reaction product (in the example the adduct of the sugar group and the acceptor) is formed is at least 10-fold higher in the presence of said glycosyl transferase than the rate at which the reaction product is formed in a control experiment in the absence of said glycosyl transferase.

## 4-[4′-Hydroxy phenyl]-butan-2-one-4′-O-β-D-glucopyranoside [raspberry ketone glycoside]
[1]; 0 min (control sample, not incubated), tester P-01, product spiked with 1200 ppm raspberry ketone glycoside
  amount of raspberry ketone remaining in product: 0.2 mg/mL
[1]; 0 min (control sample, not incubated), tester P-02, product spiked with 1200 ppm raspberry ketone glycoside
  amount of raspberry ketone remaining in product: 0.2 mg/mL
[1]; 0 min (control sample, not incubated), tester P-03, product spiked with 1200 ppm raspberry ketone glycoside
  amount of raspberry ketone remaining in product: 0.2 mg/mL
[1]; 0 min, tester P-01
  percentage release of raspberry ketone from glycoside: 0%
[1]; 0 min, tester P-02
  percentage release of raspberry ketone from glycoside: 0%
[1]; 0 min, tester P-03
  percentage release of raspberry ketone from glycoside: 0%
[1]; 5 min in mouth, tester P-01
  amount of raspberry ketone remaining in product: 0.15 mg/mL
  percentage release of raspberry ketone from glycoside: 25%
[1]; 5 min in mouth, tester P-02
  amount of raspberry ketone remaining in product: 0.13 mg/mL
  percentage release of raspberry ketone from glycoside: 35%
[1]; 5 min in mouth, tester P-03
  amount of raspberry ketone remaining in product: 0.16 mg/mL
  percentage release of raspberry ketone from glycoside: 20%
[1]; 10 min in mouth, tester P-01
  amount of raspberry ketone remaining in product: 0.12 mg/mL
  percentage release of raspberry ketone from glycoside: 40%
[1]; 10 min in mouth, tester P-02
  amount of raspberry ketone remaining in product: 0.10 mg/mL
  percentage release of raspberry ketone from glycoside: 50%
[1]; 10 min in mouth, tester P-03
  amount of raspberry ketone remaining in product: 0.16 mg/mL
  percentage release of raspberry ketone from glycoside: 20%
[1]; 20 min in mouth, tester P-01
  amount of raspberry ketone remaining in product: 0.06 mg/mL
  percentage release of raspberry ketone from glycoside: 70%
[1]; 20 min in mouth, tester P-02
  amount of raspberry ketone remaining in product: 0.06 mg/mL
  percentage release of raspberry ketone from glycoside: 70%
[1]; 20 min in mouth, tester P-03
  amount of raspberry ketone remaining in product: 0.13 mg/mL
  percentage release of raspberry ketone from glycoside: 35%
[1]; after 20 min in mouth incubation, across all panellists
  glycoside enzymatically cleaved: 35 - 70%

B1: WGT14: terpene glycosyl transferase VvGT14 from Vitis vinifera (SEQ ID NO: 1) (protein, listed as Vitis vinifera)
chain: MGSMEKPHAVCIPYPAQGHINPMLKVAKLLHFRGFRITFVNTEFNHTRLLKAQGPNSLNGLPTFQFETIPDGLPPSNVDATQDIPSLCASTKKNCLAPFRRLLAKLNDRGPPVTCIFSDAVMSFTLDAAQELGIPDLLLWTASACGFMAYVQYRSLIDKGFTPLKDESYLTNGYLDTVVDWIPGMKGIRLKDLPSFIRTTDPDDIMLDFAMGELERARKASAIIFNTFDALEQEVLDAIAPMYPPIYTIGPLQLLPDQIHDSELKLIGSNLWKEEPECLKWLDSKEPNSVVYVNYGSITVMTPQQLIEFAWGLANSNQSFLWILRPDLVSGESAILPPEFVAETEDRGLLAGWCPQEQVLTHQAIGGFLTHNGWNSTIEGLCAGVPMICWPFFAEQQTNCRYCCTEWGVGMEIDSDVKRDEVAKLVRELMVGEKGKVMKKKTMEWKHRAEVATTGPDGSSYLNLEKIFEQVLL
[2]
  capability of catalyzing glucosylation of furaneol: capable of catalyzing glucosylation of furaneol
